Consider two compounds from patent US4489061A, “Treatment of male mammals” (The Salk Institute for Biological Studies, priority 1982, dated 1984).

Where a SMILES comes first, the peptide text is derived from it. [ ]: non-standard residue; d: D form. dPhe(4-Cl) = N[C@H](Cc1ccc(Cl)cc1)C(=O)O; NMeL = CN[C@@H](CC(C)C)C(=O)O; pGlu = O=C1CC[C@@H](C(=O)O)N1; ΔPro = O=C(O)[C@@H]1C=CCN1

The subject of series [1] is release of gonadotropins by the pituitary gland. The conditions noted are these: versus [des His2]-LRF; cited from earlier work.
The subject of a further series is male rats. Put plainly: 14-day daily injection in male rats: gonadal function, hormones, androgen-dependent behavior, fertility and recovery. In kind it is in vivo, rat. The conditions noted are these: 1 milligram daily for 14 days. The source says:
The peptide is used at a level effective to reduce testes and seminal vesicles weights and also to inhibit spermatogenesis after a 14-day administration to male rats. […] Prostate weights of male rats recover in 2-3 weeks and seminal vesicles weights in 4-5 weeks. It is preferred to use dosage levels in the range of from about 0.1 to about 1 milligram per rat per day, which can be administered without detrimental side effects.
Male rats (about 320 grams each) are each treated with 1 milligram of the peptide synthesized in Example I, once a day, for 14 days by injection in 0.2 ml. of corn oil. All the rats show a decrease in testes and seminal vesicles weight, spermatogenesis and plasma androgen levels.
Full recovery of testes and seminal vesicle weights, androgen-dependent behavior and spermatogenesis ultimately occurs following cessation of the 14-day peptide administration. […] Fertility, as assessed by the ability to impregnate females, is restored in all of the rats which have not been sacrificed within 6 weeks after cessation of the injections.
A first group (I) of male rats (about 320 grams each) are each treated with 1 milligram of Peptide A synthesized in Example III, every day for 14 days, by injection in 0.2 ml. of corn oil. All the rats show a decrease in testes and seminal vesicles weight, spermatogenesis and plasma androgen levels. […]

Regarding “[pGlu]WSY[dA]LRPG-NH2 [[des His^2, D-Ala^6]-LRF]”, in series [1], the “potency as inhibitor of the release of gonadotropins, relative to the same peptide with Gly in the 6-position” value is listed as 3 times more potent.

In the case of `CC(=O)N1CC=C[C@H]1C(=O)N[C@H](Cc1ccc(Cl)cc1)C(=O)N[C@H](Cc1c[nH]c2ccccc12)C(=O)N[C@@H](CO)C(=O)N[C@@H](Cc1ccc(O)cc1)C(=O)N[C@H](Cc1c[nH]c2ccccc12)C(=O)N(C)[C@@H](CC(C)C)C(=O)N[C@@H](CCCNC(=N)N)C(=O)N1CCC[C@H]1C(=O)NCC(N)=O` [Example I, [Ac-dehydro Pro^1, pCl--D--Phe^2, D--Trp^3,6, NαMeLeu^7]-LRF] (Ac-[ΔPro][dPhe(4-Cl)][dW]SY[dW][NMeL]RPG-NH2), the “side effects / damage” value in the series with male rats is on record as “without harmful side effects or irreversible damage”.
